Six molecules from ChEMBL document CHEMBL4130562, “Design, Synthesis, and Antibacterial Evaluation of Oxazolidinones with Fused Heterocyclic C-Ring Substructure” (ACS Med Chem Lett, 2017) can be followed below.

Molecules are shown by their SMILES. Values after ≈ are worked out from the molar mass of the structure shown. Bounds are passed on as bounds.

What all share (assay type): functional
In test [1] the test system is Staphylococcus aureus. As to the kind of experiment: Antibacterial activity against Staphylococcus aureus ATCC 6538P by microbroth dilution method.
Test [2] deals with Staphylococcus aureus. As to the kind of experiment: Antibacterial activity against Staphylococcus aureus ATCC 33591 by microbroth dilution method. (Dilution methods test growth across graded concentrations, often in twofold steps.)
For test [3], the system named is Staphylococcus aureus. Briefly: Antibacterial activity against Staphylococcus aureus ATCC 29213 by microbroth dilution method.
The subject of test [4] is Staphylococcus aureus. As to the kind of experiment: Antibacterial activity against methicillin-resistant Staphylococcus aureus 1201984 by microbroth dilution method.
The subject of test [5] is Staphylococcus aureus. Briefly: Antibacterial activity against linezolid-resistant Staphylococcus aureus by microbroth dilution method.
A further test deals with Enterococcus faecalis. As to the kind of experiment: Antibacterial activity against Enterococcus faecalis ATCC 29212 by microbroth dilution method.
Another test deals with Enterococcus faecium. Briefly: Antibacterial activity against Enterococcus faecium 19434 by microbroth dilution method.
The test system of another test is Streptococcus pneumoniae. As to the kind of experiment: Antibacterial activity against Streptococcus pneumoniae 55143 by microbroth dilution method.
The test system of a further test is Streptococcus pyogenes. As to the kind of experiment: Antibacterial activity against Streptococcus pyogenes ATCC 19615 by microbroth dilution method.
The test system of test [6] is Staphylococcus epidermidis. As to the kind of experiment: Antibacterial activity against Staphylococcus epidermidis ATCC 14990 by microbroth dilution method.
The next test concerns Haemophilus influenzae. Briefly: Antibacterial activity against Haemophilus influenzae ATCC 49247 by microbroth dilution method.

As to `COC(=O)NC[C@H]1CN(c2ccc(-c3ccc4c(c3)NC(=O)CO4)c(F)c2)C(=O)O1`, the MIC with Staphylococcus aureus [1] was 0.06 µg/mL (≈ 0.144 µM); against Staphylococcus aureus [2], 0.125 µg/mL (≈ 0.301 µM); against Staphylococcus aureus [3] it was 0.125 µg/mL (≈ 0.301 µM); in the test on Staphylococcus aureus [4], 0.06 µg/mL (≈ 0.144 µM); against Staphylococcus aureus [5], 0.5 µg/mL (≈ 1.2 µM); in the test on Enterococcus faecalis, 0.06 µg/mL (≈ 0.144 µM). For the same molecule, the MIC turned out to be 0.06 µg/mL (≈ 0.144 µM) with Enterococcus faecium; 0.06 µg/mL (≈ 0.144 µM) against Streptococcus pneumoniae; 0.06 µg/mL (≈ 0.144 µM) in the test with Streptococcus pyogenes; 0.06 µg/mL (≈ 0.144 µM) in [6]; 0.125 µg/mL (≈ 0.301 µM) against Haemophilus influenzae.

Regarding `CC(=S)NC[C@H]1CN(c2ccc(-c3ccc4c(c3)NC(=O)CO4)c(F)c2)C(=O)O1`, the MIC in the test on Staphylococcus aureus [1] was found to be 0.06 µg/mL (≈ 0.144 µM); in the test with Staphylococcus aureus [2] it was 0.125 µg/mL (≈ 0.301 µM); in the test with Staphylococcus aureus [3], 0.06 µg/mL (≈ 0.144 µM); in the test on Staphylococcus aureus [4] it was 0.06 µg/mL (≈ 0.144 µM); against Staphylococcus aureus [5], 0.125 µg/mL (≈ 0.301 µM); against Enterococcus faecalis, 0.06 µg/mL (≈ 0.144 µM). Further, the MIC came out at 0.06 µg/mL (≈ 0.144 µM) against Enterococcus faecium; 0.06 µg/mL (≈ 0.144 µM) in the test on Streptococcus pneumoniae; 0.06 µg/mL (≈ 0.144 µM) against Streptococcus pyogenes; 0.06 µg/mL (≈ 0.144 µM) in test [6]; 0.125 µg/mL (≈ 0.301 µM) against Haemophilus influenzae.

In the case of `CS(=O)(=O)NC[C@H]1CN(c2ccc(-c3ccc4c(c3)NC(=O)CO4)c(F)c2)C(=O)O1`, the MIC came out at 0.25 µg/mL (≈ 0.574 µM) against Staphylococcus aureus [1]; 1 µg/mL (≈ 2.3 µM) in the test with Staphylococcus aureus [2]; 8 µg/mL (≈ 18.4 µM) in the test on Staphylococcus aureus [3]; 1 µg/mL (≈ 2.3 µM) against Staphylococcus aureus [4]; 8 µg/mL (≈ 18.4 µM) with Staphylococcus aureus [5]; 0.25 µg/mL (≈ 0.574 µM) in the test with Enterococcus faecalis. The MIC came to 0.125 µg/mL (≈ 0.287 µM) against Enterococcus faecium; 0.25 µg/mL (≈ 0.574 µM) against Streptococcus pneumoniae; 0.25 µg/mL (≈ 0.574 µM) in the test with Streptococcus pyogenes; 0.5 µg/mL (≈ 1.15 µM) in [6]; 0.5 µg/mL (≈ 1.15 µM) against Haemophilus influenzae.

For the molecule `O=C(CO)NC[C@H]1CN(c2ccc(-c3ccc4c(c3)NC(=O)CO4)c(F)c2)C(=O)O1`, the MIC in the test on Staphylococcus aureus [1] turned out to be 0.25 µg/mL (≈ 0.602 µM); against Staphylococcus aureus [2], 1 µg/mL (≈ 2.41 µM); in the test with Staphylococcus aureus [3], 1 µg/mL (≈ 2.41 µM); against Staphylococcus aureus [4], 1 µg/mL (≈ 2.41 µM); against Staphylococcus aureus [5] it was 4 µg/mL (≈ 9.63 µM); against Enterococcus faecalis it was 0.06 µg/mL (≈ 0.144 µM). The MIC against Enterococcus faecium turned out to be 0.06 µg/mL (≈ 0.144 µM); against Streptococcus pneumoniae, 0.125 µg/mL (≈ 0.301 µM); against Streptococcus pyogenes, 0.125 µg/mL (≈ 0.301 µM); in [6], 0.25 µg/mL (≈ 0.602 µM); against Haemophilus influenzae it was 0.5 µg/mL (≈ 1.2 µM).

Take `Cl.N=C(N)NC[C@H]1CN(c2ccc(-c3ccc4c(c3)NC(=O)CO4)c(F)c2)C(=O)O1`: the MIC against Staphylococcus aureus [1], in the test with Staphylococcus aureus [2], against Staphylococcus aureus [3], against Staphylococcus aureus [4], against Staphylococcus aureus [5] and against Enterococcus faecalis was > 32 µg/mL in each case. For the same molecule, the MIC (in the test on Enterococcus faecium; in the test with Streptococcus pneumoniae; against Streptococcus pyogenes; in test [6]; against Haemophilus influenzae) was > 32 µg/mL throughout.

For `C[C@H]1COc2c(N3CCN(C)CC3)c(F)cc3c(=O)c(C(=O)O)cn1c23.C[C@H]1COc2c(N3CCN(C)CC3)c(F)cc3c(=O)c(C(=O)O)cn1c23.O` [LEVOFLOXACIN], the MIC with Staphylococcus aureus [1] is 0.125 µg/mL; in the test with Staphylococcus aureus [2], 0.25 µg/mL; against Staphylococcus aureus [3], 0.125 µg/mL; in the test with Staphylococcus aureus [4], 16 µg/mL; against Staphylococcus aureus [5] it was > 32 µg/mL; against Enterococcus faecalis, 0.25 µg/mL. For the same molecule, the MIC against Enterococcus faecium was 4 µg/mL; with Streptococcus pneumoniae it was 0.125 µg/mL; against Streptococcus pyogenes, 0.06 µg/mL; in test [6] it was 0.5 µg/mL; against Haemophilus influenzae, 0.06 µg/mL.
